Test results as given in patent US6589977B1, “Pyrrole derivatives and cell death inhibitors” (Sagami Chemical Research Center, priority 1999, dated 2003).

Tests used:
[1] = test system: Porcine ovarian granulosa cells (POGC); test: Inhibition of SNP-induced apoptosis of porcine ovarian granulosa cells; type: cell-based; conditions: SNP 0.5 mM; cells observed after 18 hours
Excerpt: Porcine ovaries were washed with PBS buffer, and Porcine ovarian granulosa cells (POGC) were collected by aspiration from follicles with a syringe. Cell fraction was recovered as a precipitate by centrifugation of the suspension. The operation of suspending the cell fraction into PBS buffer and subjecting the resulting suspension to centrifugation was repeated three times to wash the cells. The POGC obtained as a precipitate were suspended again into a culture medium (DMEM containing 10% fetal bovine serum) and cell clumps were disrupted by pipetting. The cell suspension was passed through a mesh to remove contaminating tissue fragments, and then pipetted in 24-well plates for cell culture. The cell suspension was cultured for 2 days in a CO2 incubator according to a conventional procedure (37° C., 5% CO2). Then, the medium was refreshed to remove floating cells and the cultivation was continued further 2 to 3 days until the cells reached subconfluency (0.7 to 2×10^5 cell/well). After the attaching cells were washed with serum-free medium, they were cultured in a serum-free DMEM (containing 5 μg/mL of transferrin, and 40 ng/mL of hydrocortisone, 4 mg/mL of bovine serum albumin (BSA), 100 nM androstendione) and it was possible to continue to culture cells with relatively immature differentiation. […] The cell death was also confirmed by MTT assay. Then, various concentrations of the test compounds were added to the present culture system and the cells were observed after 18 hours.

cerebellar granule cells [2] = test: Inhibition of bilirubin-induced death of cerebellar granule cells; type: cell-based, rats; conditions: compound 10 μM added prior to bilirubin (10 μg/ml); after 23 hours
Experimental: (§1) According to a known method (A Dissection and Tissue Culture Manual of the Nervous System, p. 211, 1989, Alan R, Liss, Inc.), cerebellar granule cells were isolated from the cerebellum of 7 days old rats and cultured. Namely, after conducting isolation procedures described in the above literature, the resulting cells were resuspended in DMEM containing 10% fetal bovine serum, 25 mM KCl and 2 mM glutamine, and seeded in poly-lysine coated plates. After the cells were cultured in a CO2 incubator for 48 hours according to a conventional method, cytosine-1-β-D(+)-arabinofuranoside (Ara-C) (10 μM) was added thereto, and the cell was continued to culture. The following experiments were conducted with the cells of 7 to 14 days old from the start day of the cultivation, the cells having completed neurite extension sufficiently.
Neonatal jaundice is known to induce severe brain damages by way of abnormally high concentration of bilirubin in the body. […] When the test compound 15 (10 μM) was added prior to the bilirubin addition, more than 95% of cells were alive on an observation made similarly after 23 hours.

cerebellar granule cells [3] = test: Inhibition of sodium azide-induced death of cerebellar granule cells; type: cell-based, rats; conditions: compound 10 μM; sodium azide (10 mM); after 2 hours
Experimental: as §1, with “After the cells were cultured in a CO2 incubator for 48 hours according to a conventional method, cytosine-1-β-D(+)-arabinofuranoside (Ara-C) (10 μM) was added thereto, and the cell was continued to culture.” left out

cerebellar granule cells [4] = test: Inhibition of antimycin A-induced death of cerebellar granule cells; type: cell-based, rats; conditions: compound 10 μM; antimycin A (5 μM); after 2 hours
Experimental: as §1
When the test compound 15 (10 μM) coexisted prior to the antimycin A addition, more than 95% of cells were alive on an observation made similarly after 2 hours.

cerebellar granule cells [5] = test: Inhibition of FCCP-induced death of cerebellar granule cells; type: cell-based, rats; conditions: compound 10 μM; FCCP (5 μM); after 2 hours
Experimental: as §1
When the test compound 15 (10 μM) coexisted prior to the FCCP addition, 80% of cells were alive on an observation similarly made after 2 hours.

cerebellar granule cells [6] = test: Inhibition of low potassium medium-induced death of cerebellar granule cells; type: cell-based, rats; conditions: compound 10 μM; low potassium medium (5 mM KCl); after 18 hours
Experimental: as §1
It is known that neuronal cells undergo cell death when they are cultured in a medium of low potassium (Proc. Natl. Acad. Sci. U.S.A., volume 90, p 10989, 1993). […] When the test compound 1 (10 μM), the test compound 10 (10 μM), or the test compound 15 (10 μM)coexisted, 50%, 80%, and 85% of cells were respectively alive on an observation made similarly after 18 hours.

cerebellar granule cells [7] = test: Inhibition of glutamate-induced death of cerebellar granule cells; type: cell-based, rats; conditions: compound 10 μM; glutamate (1 mM); after 6 hours
Experimental: as §1
Medium of cerebellar granule cells cultured for 14 days as described in Test Example 3 was replaced with DMEM containing 10% of dialyzed fetal bovine serum and subjected to a further overnight culture. […] When the test compound 15 (10 μM) coexisted, more than 95% of cells were alive on an observation even after 6 hours.

Hela 3S cells = test: Anti-cell death effect on Hela 3S cells cultured in Krebs Ringer Buffer; type: cell-based, human; conditions: compound 10 μM
Experimental: Hela 3S cells (culture medium: DMEM containing 10% fetal bovine serum), a cell line derived from human cervical cancer, were seeded into multi 48 well plates and cultured in a CO2 incubator according to conventional procedures. Confirming the subconfluency of a cell culture, the medium was replaced with Krebs Ringer Buffer (120 mM NaCl, […], 1 mM KH2PO4, […], 20 mM HEPES, pH 7.4, 2.57 g/L glucose, 0.05 g/L Phenol Red) and washed three times with the same buffer and cultivation continued in the same buffer. […] When the test compound 1 (10 μM) or the test compound 15 (10 μM) was added in the present culture system and cultivation continued similarly, the proportion of normal cells increased 59% or 77% respectively, and the proportion of necrosis-like cells decreased (1% or 0%, respectively), indicating the anti-cell death effects.

erythrocytes = test: Inhibition of hydrogen peroxide-induced hemolysis of erythrocytes; type: cell-based, Human; conditions: compound 10 μM added prior to hydrogen peroxide (300 μM); after 24 hours
Experimental: Human blood was collected and precipitated by a centrifugation (1000 rpm, 5 min) and the precipitate containing erythrocytes was washed three times with PBS and resuspended (about 5×10^8 cells/ml) with DMEM containing 10% fetal bovine serum. Cell suspensions were dispensed into a 48-well plate to become subconfluent (about 5×10^5 cells/0.5 ml/well). When hydrogen peroxide (300 μM) was added and cultivation continued for 24 hours, more than 95% of erythrocytes underwent hemolysis and become dark and ghost-like on an observation under a light microscopy.

cerebellar granule cells [8] = test: Inhibition of MPPI-induced death of cerebellar granule cells (Parkinson model); type: cell-based, rats; conditions: compound 1 μM added prior to MPPI (200 μM); 15 DIV cells; after 18 hours
Experimental: as §1, with “The following experiments were conducted with the cells of 7 to 14 days old from the start day of the cultivation, the cells having completed neurite extension sufficiently.” left out
In Parkinson's disease the dopaminergic neurons in the substantia nigra and corpus striatum in the mid-brain are selectively destroyed. Because following administration of MPTP(1-methyl-4-phenyl-1,2,3,6-tetrahydropyridine) the similar selective destruction of the dopaminergic neurons and Parkinson's disease-like symptoms are observed, the administration system of MPTP is generally employed as an in vivo model of the onset of Parkinson's disease. […]

**Q.** How did the “MEC (Minimum effective concentration for more than 95% of inhibition of cell death)” value [1] turn out when `Cc1ccc2[nH]cc(-c3cn(C)cc3-c3c[nH]c4ccc(C)cc34)c2c1` [Compound 15] was run?
**A.** The value was 0.05 µM.

**Q.** What about the cells alive (cerebellar granule cells [2]) of the same molecule?
**A.** The cells alive was “more than 95%”.

**Q.** What about the cells alive (cerebellar granule cells [3]) of the same molecule?
**A.** The cells alive was “more than 95%”.

**Q.** And the cells alive (cerebellar granule cells [4])?
**A.** Its cells alive is “more than 95%”.

**Q.** What about the cells alive (cerebellar granule cells [5]) of the same molecule?
**A.** Its cells alive is 80%.

**Q.** And the cells alive (cerebellar granule cells [6])?
**A.** Its cells alive is 85%.

**Q.** What about the cells alive (cerebellar granule cells [7]) of the same molecule?
**A.** Its cells alive is “more than 95%”.

**Q.** What about the “proportion of necrosis-like cells” value (Hela 3S cells; after 5 hours (11% without compound)) of the same molecule?
**A.** The value was 0%.

**Q.** And the “proportion of normal cells” value (Hela 3S cells; after 5 hours (42% normal without compound))?
**A.** Its value is 77%.

**Q.** What about the inhibition of hemolysis (erythrocytes) of the same molecule?
**A.** Its inhibition of hemolysis is “almost complete inhibition of hemolysis”.

**Q.** And the cells alive (cerebellar granule cells [8])?
**A.** The cells alive was “more than 95%”.
